Laboratory results published in patent publication US12065436B2, “Cardiac sarcomere inhibitors” (Cytokinetics, Inc., priority 2018, dated 2024).

Target: bovine cardiac myofibrils (full-length cardiac myosin ATPase in the native sarcomere) (Bos taurus (Bovine), UniProt Q9BE39)
Test: Skinned bovine cardiac myofibril ATPase assay (PK/LDH-coupled)
Assay type: biochemical
Conditions: Ca2+ activating to 75% of maximal rate; for CDMF75 IC15: concentration giving 15% inhibition; for IC50: read-out: CDMF75 IC50
Procedure, shortened: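 Triton-skinned bovine left-ventricle myofibrils (1 mg/mL) in PM 12 buffer (12 mM PIPES, 2 mM MgCl2, pH 6.8) with 50 μM ATP, 0.6 mM EGTA and CaCl2 set for 50% or 75% activation. Steady-state ATPase inhibition followed by PK/LDH-coupled NADH oxidation at 340 nm.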

bovine cardiac myofibrils (full-length cardiac myosin ATPase in the native sarcomere), sequence (Q9BE39 whole entry): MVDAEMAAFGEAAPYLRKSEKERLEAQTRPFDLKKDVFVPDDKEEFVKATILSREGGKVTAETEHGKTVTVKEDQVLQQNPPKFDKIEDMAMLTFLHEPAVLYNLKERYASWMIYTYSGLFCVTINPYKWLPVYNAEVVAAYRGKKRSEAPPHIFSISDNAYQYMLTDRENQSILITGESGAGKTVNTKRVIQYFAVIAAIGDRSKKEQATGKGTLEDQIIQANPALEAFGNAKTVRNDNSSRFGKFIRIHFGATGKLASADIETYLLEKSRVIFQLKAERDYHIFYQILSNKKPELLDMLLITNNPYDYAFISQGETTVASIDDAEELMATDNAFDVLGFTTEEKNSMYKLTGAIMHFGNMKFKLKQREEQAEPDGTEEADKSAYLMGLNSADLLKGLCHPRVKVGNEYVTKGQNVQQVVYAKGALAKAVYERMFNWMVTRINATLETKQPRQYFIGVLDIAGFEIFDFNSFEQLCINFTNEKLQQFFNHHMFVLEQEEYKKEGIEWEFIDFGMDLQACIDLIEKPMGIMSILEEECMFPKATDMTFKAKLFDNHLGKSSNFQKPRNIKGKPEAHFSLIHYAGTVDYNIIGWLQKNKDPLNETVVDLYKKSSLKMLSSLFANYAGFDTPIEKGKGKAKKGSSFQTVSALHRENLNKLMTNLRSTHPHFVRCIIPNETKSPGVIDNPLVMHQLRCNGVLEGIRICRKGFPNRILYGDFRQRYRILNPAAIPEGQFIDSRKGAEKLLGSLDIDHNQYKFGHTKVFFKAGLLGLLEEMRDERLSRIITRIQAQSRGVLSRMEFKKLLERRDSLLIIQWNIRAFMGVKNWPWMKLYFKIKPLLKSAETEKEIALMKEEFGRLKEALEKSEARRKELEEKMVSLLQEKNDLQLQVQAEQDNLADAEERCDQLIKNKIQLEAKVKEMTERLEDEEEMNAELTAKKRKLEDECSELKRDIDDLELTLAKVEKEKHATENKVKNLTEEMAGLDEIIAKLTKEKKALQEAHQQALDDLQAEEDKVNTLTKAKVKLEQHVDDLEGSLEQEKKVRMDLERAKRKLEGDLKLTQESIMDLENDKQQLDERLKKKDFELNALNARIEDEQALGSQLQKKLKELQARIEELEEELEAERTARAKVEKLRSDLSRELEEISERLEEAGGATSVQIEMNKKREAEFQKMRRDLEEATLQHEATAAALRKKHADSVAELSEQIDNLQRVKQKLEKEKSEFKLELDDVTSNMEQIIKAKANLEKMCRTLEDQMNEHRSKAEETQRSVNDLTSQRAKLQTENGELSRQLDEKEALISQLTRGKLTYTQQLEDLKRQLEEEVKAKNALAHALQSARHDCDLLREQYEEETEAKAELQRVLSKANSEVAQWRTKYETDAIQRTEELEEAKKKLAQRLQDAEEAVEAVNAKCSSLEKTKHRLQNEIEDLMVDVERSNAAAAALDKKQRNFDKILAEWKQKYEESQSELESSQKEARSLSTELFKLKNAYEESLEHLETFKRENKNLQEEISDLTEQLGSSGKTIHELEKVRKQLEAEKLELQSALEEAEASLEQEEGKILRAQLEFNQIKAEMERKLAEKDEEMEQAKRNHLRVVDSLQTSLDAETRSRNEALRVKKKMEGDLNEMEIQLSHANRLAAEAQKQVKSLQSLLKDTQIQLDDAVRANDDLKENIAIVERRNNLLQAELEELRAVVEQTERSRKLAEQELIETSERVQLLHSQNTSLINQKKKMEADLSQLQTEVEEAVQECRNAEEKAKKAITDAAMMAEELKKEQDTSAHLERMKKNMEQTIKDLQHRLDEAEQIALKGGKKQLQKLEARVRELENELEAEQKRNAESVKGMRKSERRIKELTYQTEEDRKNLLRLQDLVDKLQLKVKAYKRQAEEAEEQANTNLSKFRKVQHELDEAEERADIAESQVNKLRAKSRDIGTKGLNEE
bovine cardiac myofibrils (full-length cardiac myosin ATPase in the native sarcomere), sequence (P85100 whole entry partner): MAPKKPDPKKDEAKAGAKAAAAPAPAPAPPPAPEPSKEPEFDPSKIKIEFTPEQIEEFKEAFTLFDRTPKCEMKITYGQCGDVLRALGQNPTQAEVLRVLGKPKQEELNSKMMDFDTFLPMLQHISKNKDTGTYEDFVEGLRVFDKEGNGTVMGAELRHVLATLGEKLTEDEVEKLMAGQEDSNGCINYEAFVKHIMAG
bovine cardiac myofibrils (full-length cardiac myosin ATPase in the native sarcomere), sequence (Q3SZE5 whole entry partner): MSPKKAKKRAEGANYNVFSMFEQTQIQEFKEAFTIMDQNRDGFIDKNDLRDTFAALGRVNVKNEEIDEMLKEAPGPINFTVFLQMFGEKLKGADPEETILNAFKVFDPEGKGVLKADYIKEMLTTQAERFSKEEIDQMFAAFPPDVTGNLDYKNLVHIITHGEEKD

Compound | CDMF75 IC15 | IC50
CCc1nc(-c2ccc3c(c2)CC[C@H]3NC(=O)OCC(C)C)no1 [Compound 322, isobutyl (R)-(5-(5-ethyl-1,2,4-oxadiazol-3-yl)-2,3-dihydro-1H-inden-1-yl)carbamate] | 0.3 µM | 0.9 µM
CCc1nc(-c2ccc3c(c2)CC[C@H]3NC(=O)OCC2CC2)no1 [Compound 323, cyclopropylmethyl (R)-(5-(5-ethyl-1,2,4-oxadiazol-3-yl)-2,3-dihydro-1H-inden-1-yl)carbamate] | 0.3 µM | 0.9 µM
CCc1nc(-c2ccc3c(c2)CC[C@H]3NC(=O)OCCOC)no1 [Compound 324, 2-methoxyethyl (R)-(5-(5-ethyl-1,2,4-oxadiazol-3-yl)-2,3-dihydro-1H-inden-1-yl)carbamate] | 0.8 µM | 3.2 µM
CCc1nc(-c2ccc3c(c2)CC[C@H]3NC(=O)OC2CCCC2)no1 [Compound 325, cyclopentyl (R)-(5-(5-ethyl-1,2,4-oxadiazol-3-yl)-2,3-dihydro-1H-inden-1-yl)carbamate] | 0.5 µM | 1.9 µM
O=C(N[C@@H]1CCc2cc(-c3noc(C4CC4)n3)ccc21)OCC1CC1 [Compound 326, cyclopropylmethyl (R)-(5-(5-cyclopropyl-1,2,4-oxadiazol-3-yl)-2,3-dihydro-1H-inden-1-yl)carbamate] | 0.6 µM | 2.4 µM
COCCOC(=O)N[C@@H]1CCc2cc(-c3noc(C4CC4)n3)ccc21 [Compound 327, 2-methoxyethyl (R)-(5-(5-cyclopropyl-1,2,4-oxadiazol-3-yl)-2,3-dihydro-1H-inden-1-yl)carbamate] | 1.8 µM | 8.2 µM
O=C(N[C@@H]1CCc2cc(-c3noc(C4CC4)n3)ccc21)OC1CCCC1 [Compound 328, cyclopentyl (R)-(5-(5-cyclopropyl-1,2,4-oxadiazol-3-yl)-2,3-dihydro-1H-inden-1-yl)carbamate] | 1.2 µM | > 39.2 µM
CCc1nc(-c2ccc3c(c2)CC[C@H]3NC(=O)C2(C)CC2)no1 [Compound 329, (R)-N-(5-(5-ethyl-1,2,4-oxadiazol-3-yl)-2,3-dihydro-1H-inden-1-yl)-1-methylcyclopropane-1-carboxamide] | 1.7 µM | 7 µM
CC1(C(=O)N[C@@H]2CCc3cc(-c4noc(C5CC5)n4)ccc32)CC1 [Compound 330, (R)-N-(5-(5-cyclopropyl-1,2,4-oxadiazol-3-yl)-2,3-dihydro-1H-inden-1-yl)-1-methylcyclopropane-1-carboxamide] | 3.8 µM | 17.7 µM
CC(=O)N1CC[C@@H]1C(=O)N[C@@H]1CCc2cc(-c3noc(C4CC4)n3)ccc21 [Compound 331, (R)-1-acetyl-N-((R)-5-(5-cyclopropyl-1,2,4-oxadiazol-3-yl)-2,3-dihydro-1H-inden-1-yl)azetidine-2-carboxamide] | 20.0 µM | > 39.2 µM
CC(=O)N1CC[C@H]1C(=O)N[C@@H]1CCc2cc(-c3noc(C4CC4)n3)ccc21 [Compound 332, (S)-1-acetyl-N-((R)-5-(5-cyclopropyl-1,2,4-oxadiazol-3-yl)-2,3-dihydro-1H-inden-1-yl)azetidine-2-carboxamide] | 39.2 µM | > 39.2 µM
CCc1nc(-c2ccc3c(c2)CC[C@H]3NC(=O)OCC(F)F)no1 [Compound 333, 2,2-difluoroethyl (R)-(5-(5-ethyl-1,2,4-oxadiazol-3-yl)-2,3-dihydro-1H-inden-1-yl)carbamate] | 0.3 µM | 0.9 µM
O=C(N[C@@H]1CCc2cc(-c3noc(C4CC4)n3)ccc21)OCC(F)F [Compound 334, 2,2-difluoroethyl (R)-(5-(5-cyclopropyl-1,2,4-oxadiazol-3-yl)-2,3-dihydro-1H-inden-1-yl)carbamate] | 0.6 µM | 1.9 µM
CCc1nc(-c2ccc3c(c2)CC[C@H]3NC(=O)[C@H]2CCC(=O)N2)no1 [Compound 335, (R)-N-((R)-5-(5-ethyl-1,2,4-oxadiazol-3-yl)-2,3-dihydro-1H-inden-1-yl)-5-oxopyrrolidine-2-carboxamide] | 19.1 µM | > 39.2 µM
O=C1CC[C@H](C(=O)N[C@@H]2CCc3cc(-c4noc(C5CC5)n4)ccc32)N1 [Compound 336, (R)-N-((R)-5-(5-cyclopropyl-1,2,4-oxadiazol-3-yl)-2,3-dihydro-1H-inden-1-yl)-5-oxopyrrolidine-2-carboxamide] | 30.9 µM | > 39.2 µM
CCc1nc(-c2ccc3c(c2)CC[C@H]3NC(=O)[C@@H]2CCC(=O)N2)no1 [Compound 337, (S)-N-((R)-5-(5-ethyl-1,2,4-oxadiazol-3-yl)-2,3-dihydro-1H-inden-1-yl)-5-oxopyrrolidine-2-carboxamide] | 24.7 µM | > 39.2 µM
O=C1CC[C@@H](C(=O)N[C@@H]2CCc3cc(-c4noc(C5CC5)n4)ccc32)N1 [Compound 338, (S)-N-((R)-5-(5-cyclopropyl-1,2,4-oxadiazol-3-yl)-2,3-dihydro-1H-inden-1-yl)-5-oxopyrrolidine-2-carboxamide] | 39.2 µM | > 39.2 µM
CCc1nc(-c2ccc3c(c2)OC[C@H]3NC(=O)c2cc(C)no2)no1 [Compound 339, (S)-N-(6-(5-ethyl-1,2,4-oxadiazol-3-yl)-2,3-dihydrobenzofuran-3-yl)-3-methylisoxazole-5-carboxamide] | 0.4 µM | 1.2 µM
CCc1nc(-c2ccc3c(c2)OC[C@H]3NC(=O)c2conc2C)no1 [Compound 340, (S)-N-(6-(5-ethyl-1,2,4-oxadiazol-3-yl)-2,3-dihydrobenzofuran-3-yl)-3-methylisoxazole-4-carboxamide] | 0.3 µM | 0.7 µM
[2H]C([2H])([2H])c1noc(-c2ccc3c(c2)OC[C@H]3NC(=O)c2cnn(C)c2C)n1 [Compound 341, (S)-1,5-dimethyl-N-(6-(3-(methyl-d3)-1,2,4-oxadiazol-5-yl)-2,3-dihydrobenzofuran-3-yl)-1H-pyrazole-4-carboxamide] | 1.9 µM | 7.3 µM
[2H]C([2H])([2H])c1noc(-c2ccc3c(c2)OC[C@H]3NC(=O)c2nnn(C)n2)n1 [Compound 342, (S)-2-methyl-N-(6-(3-(methyl-d3)-1,2,4-oxadiazol-5-yl)-2,3-dihydrobenzofuran-3-yl)-2H-tetrazole-5-carboxamide] | 8.0 µM | > 39.2 µM
Cc1noc(-c2ccc3c(c2)OC[C@H]3NC(=O)c2cnn(C)c2C)n1 [Compound 343, (S)-1,5-dimethyl-N-(6-(3-methyl-1,2,4-oxadiazol-5-yl)-2,3-dihydrobenzofuran-3-yl)-1H-pyrazole-4-carboxamide] | 1.8 µM | 6.6 µM
Cc1noc(-c2ccc3c(c2)OC[C@H]3NC(=O)c2nnn(C)n2)n1 [Compound 344, (S)-2-methyl-N-(6-(3-methyl-1,2,4-oxadiazol-5-yl)-2,3-dihydrobenzofuran-3-yl)-2H-tetrazole-5-carboxamide] | 8.6 µM | > 39.2 µM
Cc1cc(C(=O)N[C@@H]2COc3cc(-c4noc(C)n4)ccc32)on1 [Compound 346, (S)-3-methyl-N-(6-(5-methyl-1,2,4-oxadiazol-3-yl)-2,3-dihydrobenzofuran-3-yl)isoxazole-5-carboxamide] | 0.9 µM | 3.2 µM
